{"source": "patent US20090004694A1", "about": "“Sequence of Thermotolerant L-Rhamnose Isomerase Gene and Use of the Same” (National University Corporation Kagawa University, priority 2004, published 2009)", "key": {"[1]": {"tested_on": "L-rhamnose isomerase derived from Bacillus pallidus strain 14a (IPOD FERM AP-20172)", "assay": "Substrate specificity (relative activity) of the purified enzyme, cysteine-carbazole method", "type": "biochemical", "conditions": "activity against L-rhamnose assumed to be 100%; 50° C., 10 minutes, glycine-NaOH buffer pH 9.0", "method": "(§1) The method for measuring the substrate specificity (relative activity (%)) will be described.\n(§2) A reaction solution having a composition of 50 μl of the purified enzyme solution, 50 μl of 0.05 M of each substrate sugar, 50 μl of 0.01 M manganese chloride and 0.05 M glycine-NaOH buffer (pH 9.0) was used. The reaction was carried out at a reaction temperature of 50° C. for 10 minutes. The produced ketose corresponding to the respective substrates was measured by the cysteine-carbazole method, and the activity that produces 1 μmol of the ketose per minute was measured for the respective substrates."}, "[2]": {"tested_on": "L-rhamnose isomerase produced by Pseudomonas stutzeri LL172 (IPOD FERM BP-08593)", "assay": "Substrate specificity (relative activity) of the purified enzyme, cysteine-carbazole method", "type": "biochemical", "conditions": "activity against L-rhamnose assumed to be 100%; 50° C., 10 minutes, glycine-NaOH buffer pH 9.0", "method": "as §1, §2"}, "[3]": {"tested_on": "L-rhamnose isomerase produced by Pseudomonas stutzeri LL172", "conditions": "cited from earlier work; for effect of chelating agent on activity: coexisting during the measurement of the activity"}, "[4]": {"target": "T1, L-rhamnose isomerase produced by E. coli (Escherichia coli, UniProt P32170)", "T1 sequence (P32170 1-419)": "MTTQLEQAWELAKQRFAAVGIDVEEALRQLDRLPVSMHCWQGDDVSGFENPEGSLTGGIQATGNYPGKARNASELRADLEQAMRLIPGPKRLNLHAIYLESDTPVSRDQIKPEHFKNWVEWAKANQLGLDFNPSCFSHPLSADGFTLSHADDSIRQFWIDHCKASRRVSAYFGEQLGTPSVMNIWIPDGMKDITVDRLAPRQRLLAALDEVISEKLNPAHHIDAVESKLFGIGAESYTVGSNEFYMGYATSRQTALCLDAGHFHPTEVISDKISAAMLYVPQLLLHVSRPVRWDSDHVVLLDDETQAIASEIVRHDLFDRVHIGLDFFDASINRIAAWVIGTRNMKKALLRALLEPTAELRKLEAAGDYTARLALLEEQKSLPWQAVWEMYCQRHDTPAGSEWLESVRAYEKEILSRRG", "conditions": "cited from earlier work"}, "[5]": {"assay": "Solubility of D-psicose and D-allose in water and alcohols", "type": "physicochemical", "excerpt": "The principle of the collection by separation will be briefly described. […] D-psicose has a solubility of about 10% in methanol and ethanol, however, D-allose is insoluble in either alcohol. The temperature has an influence on the solubility. The solubility of D-psicose in both alcohols is increased at a high temperature. Further, when the alcohol concentration is high, D-allose is likely to be crystallized. It is a separation technique utilizing the above physical properties. It is a production method of high-purity D-allose in which by allowing an alcohol (ethanol and/or ethanol) to act on, D-allose which is insoluble in the alcohol (ethanol and/or ethanol) is crystallized and the crystal of D-allose is separated."}, "[6]": {"tested_on": "L-rhamnose isomerase derived from Bacillus pallidus strain 14a", "assay": "Effect of metal ion on enzyme activity", "type": "biochemical", "conditions": "1 mM cobalt ion"}, "[7]": {"assay": "Optimal and working temperature of L-rhamnose isomerase", "type": "biochemical", "conditions": "reaction time of 10 minutes"}, "[8]": {"conditions": "reaction time 10 minutes; cited from earlier work"}, "[9]": {"conditions": "cited from earlier work"}, "[10]": {"conditions": "known properties (Non-patent document 1 / Patent document 1); cited from earlier work"}, "[11]": {"assay": "Optimal pH and working pH of L-rhamnose isomerase", "type": "biochemical", "conditions": "50° C., L-rhamnose as substrate, purified enzyme", "method": "The optimal pH of L-rhamnose isomerase derived from Bacillus pallidus was examined. With the use of the purified enzyme, a reaction was carried out at 50° C. using L-rhamnose as a substrate at each pH value.\nThe optimal pH of L-rhamnose isomerase derived from P. stutzeri was examined. […] With regard to the activity thereof, the optimal pH was present in a range of from pH 7 to around pH 9."}, "[12]": {"assay": "Temperature stability of L-rhamnose isomerase", "type": "physicochemical", "conditions": "heat treatment condition of 1 hour"}}, "note": "Several values for one entry are separate records, joined by “and”; a condition that tells them apart may be missing. Identical values can stand only once. Like-named read-outs stand apart in the source and are kept apart here.", "data": [{"molecule": "O=C[C@H](O)[C@H](O)[C@@H](O)[C@@H](O)CO", "note": "[L-mannose]", "values": [{"measurement": "Enzyme derived from B. Pallidus (relative activity %)", "setting": "[1]", "result": 11, "unit": "%"}, {"measurement": "Enzyme derived from P stutzeri (relative activity %)", "setting": "[2]", "result": 33.4, "unit": "%"}]}, {"molecule": "O=C[C@@H](O)[C@@H](O)[C@H](O)CO", "note": "[D-lyxose]", "values": [{"measurement": "Enzyme derived from B. Pallidus (relative activity %)", "setting": "[1]", "result": 0.14, "unit": "%"}, {"measurement": "Enzyme derived from P stutzeri (relative activity %)", "setting": "[2]", "result": 0.006, "unit": "%"}]}, {"molecule": "O=C(O)CN(CCOCCOCCN(CC(=O)O)CC(=O)O)CC(=O)O", "note": "[EGTA]", "values": [{"measurement": "effect of chelating agent on activity", "setting": "[3]", "result": "hardly inhibited"}]}, {"molecule": "O=C(O)CN(CCN(CC(=O)O)CC(=O)O)CC(=O)O", "note": "[EDTA]", "values": [{"measurement": "effect of chelating agent on activity", "setting": "[3]", "result": "hardly inhibited"}]}, {"molecule": "O=C[C@H](O)[C@H](O)[C@H](O)[C@H](O)CO", "note": "[D-allose]", "values": [{"measurement": "activity between D-psicose and D-allose", "setting": "[4]", "result": "hardly exhibits an activity"}, {"measurement": "solubility in methanol and ethanol", "setting": "[5]", "result": "insoluble"}, {"measurement": "solubility in water", "setting": "[5]", "result": "readily soluble"}, {"measurement": "Enzyme derived from B. Pallidus (relative activity %)", "setting": "[1]", "result": "5.5% and 5.6%"}, {"measurement": "Enzyme derived from P stutzeri (relative activity %)", "setting": "[2]", "result": 7.2, "unit": "%"}]}, {"molecule": "C[C@H](O)[C@H](O)[C@@H](O)[C@@H](O)C=O", "note": "[L-rhamnose]", "values": [{"measurement": "Enzyme derived from B. Pallidus (relative activity %)", "setting": "[1]", "result": 100, "unit": "%"}, {"measurement": "Enzyme derived from P stutzeri (relative activity %)", "setting": "[2]", "result": 100, "unit": "%"}]}, {"molecule": "[Co+2]", "note": "[cobalt ion]", "values": [{"measurement": "activity inhibited by metal ion", "setting": "[3]; 1 mM cobalt ion", "result": "About 30%"}, {"measurement": "activity inhibited by metal ion", "setting": "[6]", "result": "About 30%"}]}, {"molecule": "O=C(CO)[C@H](O)[C@H](O)[C@H](O)CO", "note": "[D-psicose]", "values": [{"measurement": "activity between D-psicose and D-allose", "setting": "[4]", "result": "hardly exhibits an activity"}, {"measurement": "solubility in methanol and ethanol", "setting": "[5]; methanol and ethanol", "result": "about 10%"}, {"measurement": "solubility in water", "setting": "[5]; water", "result": "readily soluble"}]}, {"molecule": "O=C[C@H](O)[C@H](O)[C@@H](O)CO", "note": "[L-lyxose]", "values": [{"measurement": "Enzyme derived from B. Pallidus (relative activity %)", "setting": "[1]", "result": 23.9, "unit": "%"}, {"measurement": "Enzyme derived from P stutzeri (relative activity %)", "setting": "[2]", "result": "43.9% and 43.7%"}]}, {"molecule": "L-rhamnose isomerase produced by Pseudomonas stutzeri LL172: known L-rhamnose isomerase derived from Pseudomonas stutzeri LL172 (FERM BP-08593), amino acid sequence SEQ ID NO: 4 (protein, listed as Pseudomonas stutzeri) MAEFRIAQDVVARENDRRASALKEDYEALGANLARRGVDIEAVTAKVEKFFVAVPSWGVGTGGTRFARFPGTGEPRGIFDKLDDCAVIQQLTRATPNVSLHIPWDKADPKELKARGDALGLGFDAMNSNTFSDAPGQAHSYKYGSLSHTDAATRAQAVEHNLECIEIGKAIGSKALTVWIGDGSNFPGQSNFTRAFERYLSAMAEIYKGLPDDWKLFSEHKMYEPAFYSTVVQDWGTNYLIAQTLGPKAQCLVDLGHHAPNTNIEMIVARLIQFGKLGGFHFNDSKYGDDDLDAGAIEPYRLFLVFNELVDAEARGVKGFHPAHMIDQSHNVTDPIESLINSANEIRRAYAQALLVDRAALSGYQEDNDALMATETLKRAYRTDVEPILAEARRRTGGAVDPVATYRASGYRARVAAERPASVAGGGGII", "values": [{"measurement": "optimal temperature (highest enzymatic activity)", "setting": "[7]", "result": 60, "unit": "°C"}, {"measurement": "temperature of highest activity", "setting": "[8]", "result": 60, "unit": "°C"}, {"measurement": "remaining activity", "setting": "[9]; 50° C. for 10 minutes", "result": "≥ 90", "unit": "%"}, {"measurement": "temperature stability (stable at)", "setting": "[9]; 10 minutes", "result": 40, "unit": "°C"}, {"measurement": "optimal pH", "setting": "[10]", "result": 9.0}, {"measurement": "pH at which the highest activity was exhibited", "setting": "[11]", "result": 9}, {"measurement": "temperature stability (stable up to)", "setting": "[12]", "result": 40, "unit": "°C"}]}, {"molecule": "L-rhamnose isomerase derived from Bacillus pallidus: thermotolerant L-rhamnose isomerase derived from Bacillus pallidus strain 14a (FERM AP-20172), amino acid sequence SEQ ID NO: 2 (protein, listed as Bacillus pallidus) MVIKESFEIARQVYEKWGINIEEVLENLQQASISIHCWQGDDVKGFEADASELSGGIDVTGNYPGKARNAEELRQDLEKALSLIPGKHRVNLHAIYAETNGEKVERDQLEPKHFENWVNWAKKIGIGLDFNPTLFSHEKAADGLTLSHPDPGIREFWINHCIRSRKIGEYFGKELGTPCLTNIWIPDGYKDIPSDRLTPRKRLKESLDKIFSVEINEKYNLDAVESKLFGIGSESFVVGSHEFYLGYALQNNKIYLLDTGHFHPTETVSNKISSILLYSDRLALHVSRPVRWDSDHVVILDDELREIALEIVRNDALHKVLIGLDFFDASINRLAAWVIGTRNMIKALLYAMLMPHEYLKQLQEKGNFTERLAVMEEFKTYPFGAIWDYYCEKMNVPVREEWLKEIQKYEEEVLTKRQ", "values": [{"measurement": "optimal temperature (highest enzymatic activity)", "setting": "[7]", "result": 80, "unit": "°C"}, {"measurement": "optimal temperature higher compared with the L-rhamnose isomerase of LL172", "setting": "[7]", "result": 20, "unit": "°C"}, {"measurement": "optimal temperature higher compared with the L-rhamnose isomerase of LL172", "setting": "[7]; listed as thermotolerant L-rhamnose isomerase", "result": "about 20 °C"}, {"measurement": "pH at which the highest activity was exhibited", "setting": "[11]", "result": 6}, {"measurement": "stable temperature higher compared with the L-rhamnose isomerase of LL172", "setting": "[12]", "result": 10, "unit": "°C"}, {"measurement": "temperature stability (stable up to)", "setting": "[12]", "result": "up to 50 °C"}]}]}
